From patent US9232792B2, “Method for promoting plant growth” (SUMITOMO CHEMICAL COMPANY, LIMITED, priority 2011, dated 2016)

Tested on: Rice (cultivar: Nipponbare)
Assay: Test Example 7: reduction of drought stress by treatment of rice seeds
Assay type: in vivo
Settings: drought 2 days, then 14 days hydroponics
Description: Rice (cultivar: Nipponbare) A blank slurry solution containing 5% (V/V) color coat red (Becker Underwood, Inc.), 5% (V/V) CF-Clear (Becker Underwood, Inc.) and 1% Maxim XL (Syngenta) was prepared. A slurry solution was prepared by dissolving the present compound 1 in the blank slurry solution such that 50 g or 100 g of the compound is applied to each 100 kg of rice seeds. In a 50-ml centrifuge tube (manufactured by AGC TECHNO GLASS CO., LTD.), 0.3 ml of the slurry solution was placed for each 10 g of rice seeds and stirred until the solution was dried, thereby coating the seeds. In addition, seeds were coated with the blank slurry solution and used as seeds for a non-treated group. A filter paper was placed on the holes of a plug tray having 406 holes, and the rice seeds treated above were sown on the filter paper. […] Fourteen (14) days after the treatment, the fresh weight of the overground parts of five test plants in each treated group was measured. The experiment was performed in three replications in each treated group and the average value was calculated. […]

## O=C(O)c1cc2cc(C(F)(F)F)ccc2s1 [The present compound 1, 5-(trifluoromethyl)benzo[b]thiophene-2-carboxylic acid]
Seed treatment 50 g per 100 kg of seeds
  fresh weight of the overground part of plants vs non-treated group: much heavier
Seed treatment 100 g per 100 kg of seeds
  fresh weight of the overground part of plants vs non-treated group: much heavier
